Biological target: T1, human D3 receptor (Homo sapiens, UniProt P35462)
T1 construct: host or cells: Sf9 cells; final budded baculovirus production in Mimic Sf9 insect cells
Test: Fluorescence anisotropy competition binding with CELT-419 and D3 receptor budded baculoviruses
Conditions: FA competition with 0.5 nM CELT-419
Description: The competitive ligand dilutions were done on the measurement plate. Also, a point with no competitive ligand was included and for blank correction, a point with only BBV was included. Measurements were carried out with 5 min intervals for 5 h at 27 °C. In all cases, BBV was added as the last component to initiate the ligand binding process.
To fit the Log(IC50) change in time from the competition binding experiments, a single-phase exponential decay equation with a constant corresponding to the equilibrium state was used.

T1 sequence (P35462 whole entry): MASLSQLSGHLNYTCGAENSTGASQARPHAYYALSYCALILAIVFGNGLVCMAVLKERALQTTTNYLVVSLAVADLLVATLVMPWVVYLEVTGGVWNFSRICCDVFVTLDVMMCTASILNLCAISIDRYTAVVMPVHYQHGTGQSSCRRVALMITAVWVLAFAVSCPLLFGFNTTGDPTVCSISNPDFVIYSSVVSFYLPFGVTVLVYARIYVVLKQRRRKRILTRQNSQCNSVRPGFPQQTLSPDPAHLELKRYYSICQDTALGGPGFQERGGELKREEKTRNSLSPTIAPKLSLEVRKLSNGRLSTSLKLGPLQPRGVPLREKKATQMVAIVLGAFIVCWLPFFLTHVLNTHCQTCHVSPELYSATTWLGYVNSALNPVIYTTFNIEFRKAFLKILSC

CN1CCc2cccc3c2[C@H]1Cc1ccc(O)c(O)c1-3 [Apomorphine]
Log(IC50) values change in time: increased in time

Reference: paper PMC10062709, “Fluorescence based HTS-compatible ligand binding assays for dopamine D3 receptors in baculovirus preparations and live cells” (Frontiers in Molecular Biosciences, 2023)
